Source: ChEMBL document CHEMBL1201862, “PubChem BioAssay data set” (2004)
Active and inactive are the calls of the source.

Assays:
[1] = Shn3 3'UTR reporter inhibitors, dose response, cell-based, Clone20 osteoblasts, firefly luciferase, cherry-picked (AID 624132); assay type: functional;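 further: firefly luciferase luminescence from reporter carrying the Shn3 3'UTR in osteoblasts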
[2] = control 3'UTR Renilla luciferase suppression, dose response, counter-screen for Shn3 inhibitor project, cell-based, Clone20-Shn3RL, cherry-picked (AID 624133); assay type: functional
[3] = HepG2 cell cytotoxicity, dose response, cytotoxicity control for Shn3 inhibitor project, CellTiter-Glo, cherry-picked (AID 624134); assay type: functional, cell-based
[4] = target: DNA damage-inducible transcript 3 protein (Mus musculus, UniProt P35639); assay type: functional, Cricetulus griseus
DNA damage-inducible transcript 3 protein, sequence (P35639 whole entry): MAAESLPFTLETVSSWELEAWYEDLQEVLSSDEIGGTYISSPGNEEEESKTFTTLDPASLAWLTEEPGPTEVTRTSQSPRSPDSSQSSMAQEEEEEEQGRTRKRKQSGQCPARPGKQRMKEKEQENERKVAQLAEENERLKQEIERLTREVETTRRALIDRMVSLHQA

HT-1080 = test: cytotoxicity in HT1080 fibrosarcoma cells, cell-based, fluorescence readout (AID 620); assay type: functional; conditions: Homo sapiens
[5] = target: Luciferin 4-monooxygenase (Photinus pyralis, UniProt P08659); test: Counter Screen for Luciferase-based Assay Positives. [Related pubchem assays: 620, 618, 411 ]
Luciferin 4-monooxygenase, sequence (P08659 whole entry): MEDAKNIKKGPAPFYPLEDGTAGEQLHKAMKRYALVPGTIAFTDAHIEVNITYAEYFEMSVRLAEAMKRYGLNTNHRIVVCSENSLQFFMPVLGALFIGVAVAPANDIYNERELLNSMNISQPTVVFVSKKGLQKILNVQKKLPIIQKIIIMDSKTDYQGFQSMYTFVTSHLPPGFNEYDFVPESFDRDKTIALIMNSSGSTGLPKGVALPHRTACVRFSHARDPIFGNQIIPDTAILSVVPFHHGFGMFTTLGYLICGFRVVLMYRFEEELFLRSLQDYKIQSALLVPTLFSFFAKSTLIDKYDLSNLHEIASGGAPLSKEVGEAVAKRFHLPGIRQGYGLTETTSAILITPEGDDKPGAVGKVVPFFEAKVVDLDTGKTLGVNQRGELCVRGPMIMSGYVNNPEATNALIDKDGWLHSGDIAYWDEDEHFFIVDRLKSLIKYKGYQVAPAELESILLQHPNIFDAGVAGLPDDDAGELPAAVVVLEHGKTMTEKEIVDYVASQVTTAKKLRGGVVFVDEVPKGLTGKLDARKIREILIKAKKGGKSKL

[6] = target: Potassium voltage-gated channel subfamily KQT member 2 (Rattus norvegicus, UniProt O88943); test: retigabine-insensitive KCNQ2 potentiators, concentration-response, dose response, cell-based, retigabine-insensitive compounds (AID 2654); assay type: functional
Potassium voltage-gated channel subfamily KQT member 2, sequence (O88943 whole entry): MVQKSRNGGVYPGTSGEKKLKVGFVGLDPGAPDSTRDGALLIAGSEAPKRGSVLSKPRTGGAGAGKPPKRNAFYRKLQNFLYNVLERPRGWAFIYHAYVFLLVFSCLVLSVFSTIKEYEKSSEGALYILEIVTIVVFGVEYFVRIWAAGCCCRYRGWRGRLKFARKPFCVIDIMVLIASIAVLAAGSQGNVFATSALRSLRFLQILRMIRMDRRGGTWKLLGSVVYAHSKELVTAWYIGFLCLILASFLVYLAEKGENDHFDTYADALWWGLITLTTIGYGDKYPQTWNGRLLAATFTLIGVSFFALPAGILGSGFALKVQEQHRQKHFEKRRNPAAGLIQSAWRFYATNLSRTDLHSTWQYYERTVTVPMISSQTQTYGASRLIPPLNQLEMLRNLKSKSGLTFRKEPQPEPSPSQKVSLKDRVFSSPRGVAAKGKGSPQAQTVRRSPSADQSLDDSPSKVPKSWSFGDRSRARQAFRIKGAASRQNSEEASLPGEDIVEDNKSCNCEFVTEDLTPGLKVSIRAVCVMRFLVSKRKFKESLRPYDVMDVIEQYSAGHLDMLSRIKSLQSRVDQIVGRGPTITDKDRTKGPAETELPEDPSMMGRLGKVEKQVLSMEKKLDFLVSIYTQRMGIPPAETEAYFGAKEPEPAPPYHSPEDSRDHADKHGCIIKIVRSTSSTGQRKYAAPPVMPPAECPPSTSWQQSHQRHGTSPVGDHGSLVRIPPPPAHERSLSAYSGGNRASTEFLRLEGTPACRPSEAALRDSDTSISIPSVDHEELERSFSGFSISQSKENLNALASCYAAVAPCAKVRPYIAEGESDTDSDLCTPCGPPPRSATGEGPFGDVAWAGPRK

cells [7] = test: cells
Vero [8] = test: cells; assay type: functional; conditions: Chlorocebus sabaeus
[9] = HEp-2 cell cytotoxicity, dose response, cytotoxicity control for RSV inhibitor project, HTS (AID 2410); assay type: functional; conditions: human respiratory syncytial virus
Vero [10] = test: cells; assay type: functional, cell-based; conditions: Chlorocebus sabaeus
Mucolipin-3 = target: T1, Mucolipin-3 (Homo sapiens, UniProt Q8TDD5); test: Dose response cell-based high-throughput screening assay for agonists of the transient receptor potential channel ML3 (TRPML3). [Related pubchem assays: 1526, 1424, 1448 ]; assay type: functional
T1 sequence (Q8TDD5 whole entry): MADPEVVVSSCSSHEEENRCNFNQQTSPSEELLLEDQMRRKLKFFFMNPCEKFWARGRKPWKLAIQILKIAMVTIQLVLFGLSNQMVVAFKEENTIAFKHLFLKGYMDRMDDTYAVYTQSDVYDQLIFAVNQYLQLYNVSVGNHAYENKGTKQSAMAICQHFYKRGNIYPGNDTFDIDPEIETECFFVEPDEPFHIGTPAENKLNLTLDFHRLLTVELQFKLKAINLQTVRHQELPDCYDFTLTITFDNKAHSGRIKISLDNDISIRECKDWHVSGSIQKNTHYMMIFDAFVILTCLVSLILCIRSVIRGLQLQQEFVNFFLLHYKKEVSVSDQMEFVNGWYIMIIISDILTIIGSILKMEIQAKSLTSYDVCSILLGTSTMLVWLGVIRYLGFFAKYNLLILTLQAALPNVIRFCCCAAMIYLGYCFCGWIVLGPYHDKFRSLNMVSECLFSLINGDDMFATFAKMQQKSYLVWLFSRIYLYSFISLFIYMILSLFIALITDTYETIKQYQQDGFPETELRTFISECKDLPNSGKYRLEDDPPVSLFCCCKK

Ion channel NompC = Ion channel NompC (Danio rerio, UniProt Q7T1G6); test: Fluorescence counterscreen assay for TRPML3 agonists: dose response cell-based high-throughput screening assay to identify agonists of the transient receptor potential channel N1 (TRPN1). [Related pubchem assays: 1526, 1424, 1448 ]; assay type: functional
Ion channel NompC, sequence (Q7T1G6 whole entry): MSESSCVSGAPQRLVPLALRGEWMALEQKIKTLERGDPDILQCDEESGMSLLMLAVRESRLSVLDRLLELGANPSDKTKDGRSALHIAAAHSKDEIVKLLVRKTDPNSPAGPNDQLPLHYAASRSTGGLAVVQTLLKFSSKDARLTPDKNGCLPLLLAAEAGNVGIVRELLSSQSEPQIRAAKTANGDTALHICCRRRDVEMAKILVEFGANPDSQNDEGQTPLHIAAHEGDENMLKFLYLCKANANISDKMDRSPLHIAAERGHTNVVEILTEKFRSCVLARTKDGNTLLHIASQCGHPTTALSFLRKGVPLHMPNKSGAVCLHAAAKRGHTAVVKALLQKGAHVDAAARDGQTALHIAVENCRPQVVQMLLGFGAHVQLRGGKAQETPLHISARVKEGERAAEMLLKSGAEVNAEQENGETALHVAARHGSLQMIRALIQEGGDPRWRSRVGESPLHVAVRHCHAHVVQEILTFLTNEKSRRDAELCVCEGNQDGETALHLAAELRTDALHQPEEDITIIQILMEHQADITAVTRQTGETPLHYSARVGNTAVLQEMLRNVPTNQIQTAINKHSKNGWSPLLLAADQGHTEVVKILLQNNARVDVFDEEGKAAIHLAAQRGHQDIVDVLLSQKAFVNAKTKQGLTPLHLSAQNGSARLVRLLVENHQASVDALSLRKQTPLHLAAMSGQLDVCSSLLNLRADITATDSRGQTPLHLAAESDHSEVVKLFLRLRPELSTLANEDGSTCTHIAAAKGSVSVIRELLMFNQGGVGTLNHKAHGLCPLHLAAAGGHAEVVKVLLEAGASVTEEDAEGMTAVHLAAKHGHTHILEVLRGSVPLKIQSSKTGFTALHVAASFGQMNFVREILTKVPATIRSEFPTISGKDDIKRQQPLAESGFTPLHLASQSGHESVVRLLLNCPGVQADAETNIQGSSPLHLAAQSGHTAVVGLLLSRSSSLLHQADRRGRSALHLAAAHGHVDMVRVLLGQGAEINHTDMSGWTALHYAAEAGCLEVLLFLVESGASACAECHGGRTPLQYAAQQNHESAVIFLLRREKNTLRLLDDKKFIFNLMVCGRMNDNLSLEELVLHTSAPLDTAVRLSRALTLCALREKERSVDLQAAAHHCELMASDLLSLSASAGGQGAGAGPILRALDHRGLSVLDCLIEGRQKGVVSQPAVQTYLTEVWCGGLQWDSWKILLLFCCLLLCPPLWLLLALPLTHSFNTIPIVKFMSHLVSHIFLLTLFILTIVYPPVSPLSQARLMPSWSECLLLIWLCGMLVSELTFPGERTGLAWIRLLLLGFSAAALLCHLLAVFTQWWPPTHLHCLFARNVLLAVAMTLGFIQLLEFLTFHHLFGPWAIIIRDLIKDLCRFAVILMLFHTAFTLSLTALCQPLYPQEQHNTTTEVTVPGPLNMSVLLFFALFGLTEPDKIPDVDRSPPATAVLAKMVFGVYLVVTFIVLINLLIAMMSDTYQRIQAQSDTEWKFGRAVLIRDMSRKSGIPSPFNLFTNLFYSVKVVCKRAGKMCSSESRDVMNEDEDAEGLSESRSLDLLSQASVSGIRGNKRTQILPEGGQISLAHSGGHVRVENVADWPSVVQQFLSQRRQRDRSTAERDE

[11] = target: G-protein coupled receptor 55 (Homo sapiens, UniProt Q9Y2T6); test: GPR55 antagonists blocking LPI-driven arrestin recruitment, primary screen, imaging, U2OS, beta-arrestin-GFP, LPI agonist (AID 2013); assay type: functional;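 further: antagonist potency measured as reduced agonist-driven arrestin aggregation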
G-protein coupled receptor 55, sequence (Q9Y2T6 whole entry): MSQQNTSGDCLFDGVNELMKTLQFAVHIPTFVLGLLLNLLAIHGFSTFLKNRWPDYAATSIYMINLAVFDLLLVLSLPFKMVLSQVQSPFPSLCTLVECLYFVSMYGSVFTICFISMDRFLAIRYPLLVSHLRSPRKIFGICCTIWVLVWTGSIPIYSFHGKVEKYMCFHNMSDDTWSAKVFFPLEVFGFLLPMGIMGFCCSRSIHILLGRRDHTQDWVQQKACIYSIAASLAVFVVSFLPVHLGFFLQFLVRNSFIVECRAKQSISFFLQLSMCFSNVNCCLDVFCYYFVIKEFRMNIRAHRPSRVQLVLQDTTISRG

[12] = target: DNA dC->dU-editing enzyme APOBEC-3A (Homo sapiens, UniProt P31941); test: Dose Response confirmation of small molecule APOBEC3A DNA Deaminase Inhibitors via a fluorescence-based single-stranded DNA deaminase assay. [Related pubchem assays (depositor defined):AID493011, AID493024]; assay type: functional
DNA dC->dU-editing enzyme APOBEC-3A, sequence (P31941 whole entry): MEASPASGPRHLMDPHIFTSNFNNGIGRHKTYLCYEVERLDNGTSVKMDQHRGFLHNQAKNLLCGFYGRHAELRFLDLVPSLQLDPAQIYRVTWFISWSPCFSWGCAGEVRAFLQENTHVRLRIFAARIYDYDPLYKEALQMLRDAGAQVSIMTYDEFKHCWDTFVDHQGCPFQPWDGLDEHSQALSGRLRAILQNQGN

[13] = target: DNA dC->dU-editing enzyme APOBEC-3G (Homo sapiens, UniProt Q9HC16); assay type: functional;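 further: Dose-response counterscreen measuring inhibition of APOBEC3G DNA deaminase activity, run while confirming APOBEC3A inhibitors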
DNA dC->dU-editing enzyme APOBEC-3G, sequence (Q9HC16 whole entry): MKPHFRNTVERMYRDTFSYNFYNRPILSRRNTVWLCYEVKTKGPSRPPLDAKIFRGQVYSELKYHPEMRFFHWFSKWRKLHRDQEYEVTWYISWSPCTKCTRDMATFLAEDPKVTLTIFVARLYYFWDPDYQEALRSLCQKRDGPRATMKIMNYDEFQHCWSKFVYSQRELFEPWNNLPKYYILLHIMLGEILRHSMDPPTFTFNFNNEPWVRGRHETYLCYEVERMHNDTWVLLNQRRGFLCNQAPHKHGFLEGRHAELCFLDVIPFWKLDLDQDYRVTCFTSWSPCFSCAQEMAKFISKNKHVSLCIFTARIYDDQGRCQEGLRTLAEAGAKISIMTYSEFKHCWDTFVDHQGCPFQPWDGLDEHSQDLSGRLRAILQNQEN

[14] = target: T2, Histone-lysine N-methyltransferase NSD2 (Homo sapiens, UniProt O96028); assay type: biochemical
T2 sequence (O96028 whole entry): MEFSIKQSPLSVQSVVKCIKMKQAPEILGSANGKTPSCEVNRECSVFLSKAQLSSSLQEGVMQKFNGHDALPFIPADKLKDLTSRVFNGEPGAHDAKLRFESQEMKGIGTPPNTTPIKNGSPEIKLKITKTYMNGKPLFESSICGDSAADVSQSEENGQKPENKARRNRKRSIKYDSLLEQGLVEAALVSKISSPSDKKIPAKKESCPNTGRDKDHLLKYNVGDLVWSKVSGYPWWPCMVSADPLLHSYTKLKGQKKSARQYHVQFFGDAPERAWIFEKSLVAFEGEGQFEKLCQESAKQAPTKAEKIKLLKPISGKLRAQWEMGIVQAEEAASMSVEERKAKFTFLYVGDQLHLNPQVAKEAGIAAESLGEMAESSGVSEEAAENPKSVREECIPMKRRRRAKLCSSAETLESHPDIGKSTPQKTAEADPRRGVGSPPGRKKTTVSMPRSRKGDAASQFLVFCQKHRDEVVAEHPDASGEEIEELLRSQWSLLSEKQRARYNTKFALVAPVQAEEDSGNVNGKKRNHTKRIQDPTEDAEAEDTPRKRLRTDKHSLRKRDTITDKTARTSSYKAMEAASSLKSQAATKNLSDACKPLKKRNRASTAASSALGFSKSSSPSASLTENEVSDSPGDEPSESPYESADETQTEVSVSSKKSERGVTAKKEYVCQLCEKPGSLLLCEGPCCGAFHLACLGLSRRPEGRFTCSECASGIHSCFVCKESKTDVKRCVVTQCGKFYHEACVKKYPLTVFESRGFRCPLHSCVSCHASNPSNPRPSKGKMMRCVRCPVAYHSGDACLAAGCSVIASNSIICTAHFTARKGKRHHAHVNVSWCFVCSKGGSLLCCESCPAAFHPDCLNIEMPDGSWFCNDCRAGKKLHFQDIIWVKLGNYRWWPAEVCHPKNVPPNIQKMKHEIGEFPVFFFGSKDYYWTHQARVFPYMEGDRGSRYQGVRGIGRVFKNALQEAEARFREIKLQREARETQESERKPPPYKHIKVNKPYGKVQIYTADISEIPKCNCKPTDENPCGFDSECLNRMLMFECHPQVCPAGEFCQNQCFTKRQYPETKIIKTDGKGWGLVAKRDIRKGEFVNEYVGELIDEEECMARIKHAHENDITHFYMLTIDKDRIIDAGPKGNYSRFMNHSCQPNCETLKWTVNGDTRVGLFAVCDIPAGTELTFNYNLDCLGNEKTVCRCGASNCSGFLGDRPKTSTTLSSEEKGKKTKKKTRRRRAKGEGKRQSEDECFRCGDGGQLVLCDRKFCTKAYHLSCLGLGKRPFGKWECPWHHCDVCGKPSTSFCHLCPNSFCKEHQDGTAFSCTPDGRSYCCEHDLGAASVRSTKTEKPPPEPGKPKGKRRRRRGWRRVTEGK

[15] = target: T3, Zinc finger protein mex-5 (Caenorhabditis elegans, UniProt Q9XUB2); test: MEX-5/TCR-2 RNA interaction inhibitors, dose response, biochemical, C. elegans, fluorescence polarization (AID 1960)
T3 sequence (Q9XUB2 whole entry): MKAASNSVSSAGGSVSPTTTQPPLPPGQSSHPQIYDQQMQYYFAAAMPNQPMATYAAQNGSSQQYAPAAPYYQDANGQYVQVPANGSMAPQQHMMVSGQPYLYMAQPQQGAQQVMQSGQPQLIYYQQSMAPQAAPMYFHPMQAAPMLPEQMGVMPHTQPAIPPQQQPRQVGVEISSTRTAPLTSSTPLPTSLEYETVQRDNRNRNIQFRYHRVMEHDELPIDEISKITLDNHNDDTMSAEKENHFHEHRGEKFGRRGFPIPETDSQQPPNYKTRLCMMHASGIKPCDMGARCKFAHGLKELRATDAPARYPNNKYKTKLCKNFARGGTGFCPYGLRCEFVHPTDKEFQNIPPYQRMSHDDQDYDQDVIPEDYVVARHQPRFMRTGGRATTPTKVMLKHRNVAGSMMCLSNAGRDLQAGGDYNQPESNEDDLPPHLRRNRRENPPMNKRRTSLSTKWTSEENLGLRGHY

[16] = target: T4, RNA-binding protein pos-1 (Caenorhabditis elegans, UniProt G5EF15); test: inhibitors of POS-1/mex-3 RNA binding, dose response, biochemical, fluorescence polarization (AID 1964);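 further: purified POS-1 fused to maltose binding protein made in E. coli; potency of compounds blocking POS-1 binding to fluorescent RNA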
T4 sequence (G5EF15 whole entry): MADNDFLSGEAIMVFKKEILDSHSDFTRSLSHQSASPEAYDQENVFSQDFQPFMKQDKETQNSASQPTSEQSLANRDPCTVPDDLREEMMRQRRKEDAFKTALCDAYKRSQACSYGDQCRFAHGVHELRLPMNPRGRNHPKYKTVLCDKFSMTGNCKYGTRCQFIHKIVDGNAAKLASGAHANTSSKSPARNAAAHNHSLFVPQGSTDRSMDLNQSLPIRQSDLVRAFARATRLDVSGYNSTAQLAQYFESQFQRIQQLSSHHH

[17] = cytotoxicity toward NIH3T3 fibroblasts, dose response, counter-screen, cell-based, ATP luminescence, mouse fibroblasts (AID 2010); assay type: functional;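 further: cells exposed to compound for about 90 hours before reading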
[18] = NIH-3T3 fibroblast cytotoxicity, dose response, cytotoxicity control, cell-based, fluorescence, Alamar Blue, secondary assay (AID 2327); assay type: functional;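 further: NIH-3T3 mouse fibroblasts cultured with fluconazole at 8 µg/mL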
[19] = cytotoxicity in HEK-293T cells, dose response, cytotoxicity control for TCR NF-kB inhibitor project, luminescence, T-cell screen hits (AID 489026); assay type: functional, cell-based;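 further: cells exposed to compound about 14 hours before the viability readout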
[20] = C. albicans growth with fluconazole, confirmation, fluorescence, retest (AID 2467); assay type: functional, cell-based
HEK293 [21] = test: cells; assay type: functional, cell-based; conditions: Homo sapiens
HEK293 [22] = test: NOD2 signaling inhibitors in MDP-stimulated cells, cell-based, uHTS, luminescence (AID 2001); assay type: functional; conditions: Homo sapiens
[23] = target: FAD-linked sulfhydryl oxidase ALR (Homo sapiens, UniProt P55789); test: inhibitors of human ALR sulfhydryl oxidase, dose response, biochemical, H2O2 detection, luminescence, cherry-pick (AID 493248)
FAD-linked sulfhydryl oxidase ALR, sequence (P55789 whole entry): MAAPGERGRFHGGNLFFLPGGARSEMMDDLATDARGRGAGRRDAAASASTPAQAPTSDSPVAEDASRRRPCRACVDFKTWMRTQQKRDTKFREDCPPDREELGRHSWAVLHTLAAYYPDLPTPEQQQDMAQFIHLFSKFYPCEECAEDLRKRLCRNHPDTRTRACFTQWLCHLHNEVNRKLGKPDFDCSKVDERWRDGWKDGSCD

[24] = inhibitors of intracellular T. cruzi replication, confirmation, NIH3T3 host cells, beta-gal luminescence (AID 2044); assay type: functional, cell-based;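 further: intracellular parasites grown in NIH/3T3 mouse fibroblasts as host cells; luminescent beta-galactosidase reporter signal from transgenic T. cruzi replicating inside host cells; inhibitors lower the luminescence signal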
HEK293 [25] = test: cells; assay type: functional, cell-based; conditions: Homo sapiens; remark: listed apart in the source
HEK293 [26] = test: NOD1 signaling inhibitors, primary screen, cell-based, luminescence, uHTS (AID 1578); assay type: functional; conditions: Homo sapiens
cells [27] = assay type: functional, cell-based
cells [28] = assay type: functional, cell-based; remark: listed apart in the source

For COc1ccccc1-c1cc(C(F)(F)F)nc(S(=O)(=O)CCCC(=O)Nc2cc(C)on2)n1, the AC50 [1] was 6.57 µM (active), the AC50 [2] was 16 µM (active) and the AC50 [3] was 28 µM (active). For the same molecule, the “Absolute IC50 (CHOP)” value [4] was 10 µM.
In the case of Cc1ccc(-c2nc3cc(NC(=O)C(C)C)ccc3o2)cc1, the EC50 (HT-1080) was > 50 µM (not active) and the EC50 [5] was 0.23 µM (active).
In the case of Cc1cncc(NC(=O)Nc2cccc(F)c2)c1, the EC50 [6] was 12.4 µM (active).
For Cc1cc(NC(=O)COC(=O)c2ccccc2S(=O)(=O)N(C)c2ccccc2)no1, the IC50 (cells [7]) was 9.76 µM (active), the CC50 (Vero [8]) was > 25 µM (active) and the CC50 [9] was 34.1 µM (active). For the same molecule, the IC50 (Vero [10]) was > 25 µM (active).
With Cc1nc(NC(=O)c2csc3ccccc23)sc1C the EC50 (Mucolipin-3) was 8.95 µM (active) and the EC50 (Ion channel NompC) was > 29.9 µM (not active).
In the case of Cc1cc(N)n2nc(-c3ccccc3)c(-c3ccccc3)c2n1, the IC50 [11] was 2.35 µM (active).
For O=C(CSc1nnnn1-c1ccccc1)Nc1ccc(N2CCOCC2)c(Cl)c1, the IC50 [12] was 6.63 µM (active) and the IC50 [13] was 9.68 µM (active).
For Cc1ccc(CN2C(=O)N/C(=C\c3cccn3-c3cccc(C(=O)O)c3)C2=O)cc1, the AC50 [14] was 12.8 µM (active), the EC50 [15] was > 300 µM (not active) and the EC50 [16] was > 300 µM (not active). The IC50 [12] was 10.3 µM (active) and the IC50 [13] was 25.7 µM (active).
With Cc1cc(NC(=O)Nc2cccc(F)c2)cnc1Br the EC50 [6] was 6.61 µM (active).
In the case of CC1CCN(S(=O)(=O)c2ccc(Br)s2)CC1, the EC50 (Mucolipin-3) was > 29.9 µM (not active) and the EC50 (Ion channel NompC) was > 29.9 µM (not active).
For Cc1ccc(C=Cc2ccc(N(C)C)cc2)[n+](C)c1, the EC50 [17] was 16.1 µM (active), the EC50 [18] was > 160 µM (inconclusive) and the IC50 [19] was > 80 µM (inactive). The EC50 [20] was 3.83 µM (active), the IC50 (HEK293 [21]) was > 20 µM (inactive) and the IC50 (HEK293 [22]) was 16 µM (inactive). For the same molecule, the AC50 [23] was 1.24 µM (active), the EC50 [24] was 0.232 µM (active) and the IC50 (HEK293 [25]) was 10.8 µM (active). For the same molecule, the IC50 [12] was 3.16 µM (active), the EC50 (HEK293 [26]) was 4.84 µM (active) and the IC50 [13] was 4.34 µM (active).
With CCCSc1ccc(-c2nn(-c3ccccc3)cc2/C=C(/C#N)C(=O)N2CCOCC2)cc1 the IC50 [11] was < 0.5 µM (active).
With CCC(Cc1ccccc1)n1c(=S)[nH]c2ccccc2c1=O (stereo unspecified) the EC50 (cells [27]) was > 350 µM (not active), the EC50 (cells [28]) was > 350 µM (not active) and the “Absolute IC50 (CHOP)” value [4] was 10 µM.
In the case of O=C(Nc1cccnc1)Nc1ccc2c(c1)OCO2, the EC50 [6] was 152 µM (active).
